{"source": "patent EP0069448A1", "about": "“Fungicidal amide derivatives” (IMPERIAL CHEMICAL INDUSTRIES PLC, priority 1981, dated 1983)", "type_in_all_cases": "in vivo", "key": {"[1]": {"tested_on": "VENTURIA INAEQUALIS (APPLE)", "experiment": "Foliar fungal disease test on plants (spray and root drench)", "conditions": "100 ppm active ingredient; Venturia inaequalis named as an exception to the combined spray and soil application; applied one or two days before inoculation", "procedure": "(§1) The compound of Example 1 was tested against a variety of foliar fungal diseases of plants. The technique employed was as follows:- The plants were grown in John Innes Potting Compost (No. 1 or 2) in 4 cm diameter minipots. A layer of fine sand was placed at the bottom of the pots containing the dicotyledonous plants to facilitate uptake of test compound by the roots. The test compound was formulated either by bead milling with aqueous Dispersol T or as a solution of acetone or acetone/ethanol which was diluted to the required concentration immediately before use. For the foliage diseases, suspensions (100 ppm active ingredient) were sprayed on to the […]. Exceptions to this were the tests on Botrytis cinerea, Plasmopara viticola and venturia inaequalis. The sprays were applied to maximum retention and the root drenches to a final concentration equivalent to approximately 40 ppm a.i./dry soil. Tween 20, to give a final concentration of 0.05%, was added when the sprays were applied to cereals. For most of the tests the compound was applied to the soil (roots) and the foliage (by spraying) one or two days before the plant was inoculated with the diseases. An exception was the test on Erysiphe graminis in which the plants were inoculated 24 hours before treatment. After inoculation, the plants were put into an appropriate environment to allow infection to take place and The disease control was recorded by the following grading:- [table]"}, "[2]": {"tested_on": "CERCOSPORA ARACHIDICOLA (PEANUT)", "experiment": "Foliar fungal disease test on plants (spray and root drench)", "conditions": "100 ppm active ingredient spray, root drench approximately 40 ppm a.i./dry soil; applied one or two days before inoculation", "procedure": "as §1"}, "[3]": {"tested_on": "ERYSIPHE GRAMINIS (BARLEY)", "experiment": "Foliar fungal disease test on plants (spray and root drench)", "conditions": "100 ppm active ingredient spray, root drench approximately 40 ppm a.i./dry soil; plants inoculated 24 hours before treatment", "procedure": "as §1"}, "[4]": {"tested_on": "PUCCINIA RECONDITA (WHEAT)", "experiment": "Foliar fungal disease test on plants (spray and root drench)", "conditions": "100 ppm active ingredient spray, root drench approximately 40 ppm a.i./dry soil; applied one or two days before inoculation", "procedure": "as §1"}, "[5]": {"tested_on": "Candida albicans and Trichophyton mentagrophytes var. quinkeanum", "experiment": "Oral antifungal test in oestradiol-treated female mice inoculated vaginally and on the back", "conditions": "168 h, oral dosing twice on day 0 and once daily on days 1-4, skin lesions scored and vaginal samples cultured on day 7, read-out: minimum effective dose (MED)", "procedure": "The following Monday (day 0) they are clipped on the back and then dosed orally with test compounds. They are then inoculated with Candida albicans in the vagina and Trichophyton mentagrophytes var. quinkeanum on the back, and then given a second dose of the same compound. Dosing is repeated once daily on days 1-4. On day 7 skin lesions are scored visually and vaginal samples taken for culture on agar. Groups of 5 mice are used and compounds are dosed initially at a level of 250mg./kg. The dose is then reduced sequentially until a minimum effective dose (MED) is found. The MED for 2,2-bis(4-chlorophenyl)-3-(1,2,4-triazol-1-yl)propionamide in this test was 5mg. per kg."}}}
{"smiles": "NC(=O)C(Cn1cncn1)(c1ccc(Cl)cc1)c1ccc(Cl)cc1", "note": "[Example 1, 2,2-bis(4-chlorophenyl)-3-(1,2,4-triazol-1-yl)propionamide]", "values": [{"measurement": "disease control grading, VENTURIA INAEQUALIS (APPLE)", "setting": "[1]", "value": 3}, {"measurement": "disease control grading, CERCOSPORA ARACHIDICOLA (PEANUT)", "setting": "[2]", "value": 2}, {"measurement": "disease control grading, ERYSIPHE GRAMINIS (BARLEY)", "setting": "[3]", "value": 4}, {"measurement": "disease control grading, PUCCINIA RECONDITA (WHEAT)", "setting": "[4]", "value": 1}, {"measurement": "minimal effective dose", "setting": "[5]", "value": 5, "unit": "mg/kg"}]}
